In ChEMBL document CHEMBL5465560, “Selectivity Literature for EUbOPEN Chemogenomic Library” (2024):
Values belong to the compound of their own block, whether it stands above or below them.

Key:
[1] = molecular target: T1, Cyclin-G-associated kinase (Homo sapiens) (UniProt O14976); test: Selectivity interaction (Kinase panel (DSF assay)) EUB0001558a GAK
T1 sequence (whole entry): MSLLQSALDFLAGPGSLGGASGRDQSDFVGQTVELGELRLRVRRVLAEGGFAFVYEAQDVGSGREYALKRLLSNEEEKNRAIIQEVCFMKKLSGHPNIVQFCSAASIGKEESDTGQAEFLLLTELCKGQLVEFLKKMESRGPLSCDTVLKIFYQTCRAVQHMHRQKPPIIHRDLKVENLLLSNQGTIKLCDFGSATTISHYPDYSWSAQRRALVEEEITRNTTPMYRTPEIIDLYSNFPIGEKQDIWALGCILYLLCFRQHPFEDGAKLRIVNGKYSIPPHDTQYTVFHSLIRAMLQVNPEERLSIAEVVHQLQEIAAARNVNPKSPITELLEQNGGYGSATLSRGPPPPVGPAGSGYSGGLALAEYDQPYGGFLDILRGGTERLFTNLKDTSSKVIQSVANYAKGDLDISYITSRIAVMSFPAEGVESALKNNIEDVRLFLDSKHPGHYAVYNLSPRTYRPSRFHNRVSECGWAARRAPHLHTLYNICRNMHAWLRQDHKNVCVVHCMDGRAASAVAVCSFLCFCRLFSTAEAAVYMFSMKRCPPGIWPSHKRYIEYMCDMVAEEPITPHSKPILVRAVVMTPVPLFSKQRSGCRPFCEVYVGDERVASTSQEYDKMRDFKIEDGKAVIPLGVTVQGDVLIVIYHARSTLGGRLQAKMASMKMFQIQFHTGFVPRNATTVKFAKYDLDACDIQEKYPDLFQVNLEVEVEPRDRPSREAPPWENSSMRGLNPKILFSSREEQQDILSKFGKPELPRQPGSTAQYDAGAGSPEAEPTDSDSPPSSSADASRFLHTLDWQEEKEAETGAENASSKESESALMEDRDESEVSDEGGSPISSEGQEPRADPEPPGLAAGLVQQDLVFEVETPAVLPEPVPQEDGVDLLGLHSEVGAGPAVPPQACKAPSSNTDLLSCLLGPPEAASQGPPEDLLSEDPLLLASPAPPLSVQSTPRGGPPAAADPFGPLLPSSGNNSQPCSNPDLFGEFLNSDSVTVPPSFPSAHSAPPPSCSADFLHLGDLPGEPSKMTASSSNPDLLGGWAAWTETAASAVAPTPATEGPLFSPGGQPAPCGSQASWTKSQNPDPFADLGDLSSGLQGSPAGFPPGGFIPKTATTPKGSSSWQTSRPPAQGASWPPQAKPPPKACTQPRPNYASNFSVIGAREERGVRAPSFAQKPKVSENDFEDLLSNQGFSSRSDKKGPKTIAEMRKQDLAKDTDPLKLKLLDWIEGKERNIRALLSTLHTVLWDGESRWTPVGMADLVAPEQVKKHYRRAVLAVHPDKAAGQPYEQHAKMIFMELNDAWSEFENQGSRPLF

[2] = molecular target: Tyrosine-protein kinase JAK1 (Homo sapiens, UniProt P23458); test: Selectivity interaction (ActivX KiNativ screen (kinase selectivity in THP-1 cell lysates)) EUB0000639a JAK1; type: subcellular; conditions: lysate, at 5 µM
[3] = molecular target: T2, Aurora kinase A (Homo sapiens) (UniProt O14965); test: Selectivity interaction (ActivX KiNativ screen (kinase selectivity in THP-1 cell lysates)) EUB0000639a STK6; type: subcellular; conditions: lysate, at 0.04 µM
T2 sequence (whole entry): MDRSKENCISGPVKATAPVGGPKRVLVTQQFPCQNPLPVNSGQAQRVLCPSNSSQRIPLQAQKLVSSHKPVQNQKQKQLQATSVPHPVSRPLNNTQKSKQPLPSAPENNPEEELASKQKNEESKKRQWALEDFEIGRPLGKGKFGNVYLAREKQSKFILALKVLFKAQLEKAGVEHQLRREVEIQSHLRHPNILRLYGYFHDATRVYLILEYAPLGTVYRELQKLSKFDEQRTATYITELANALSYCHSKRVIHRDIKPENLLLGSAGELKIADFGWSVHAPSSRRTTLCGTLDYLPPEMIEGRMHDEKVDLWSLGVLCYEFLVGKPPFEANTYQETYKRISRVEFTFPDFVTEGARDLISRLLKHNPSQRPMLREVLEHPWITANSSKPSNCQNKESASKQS

[4] = molecular target: T3, Serine/threonine-protein kinase D2 (Homo sapiens) (UniProt Q9BZL6); test: Selectivity interaction (KinomeScan (DiscoverX)) EUB0001049a PRKD2; conditions: at 1 µM
T3 sequence (whole entry): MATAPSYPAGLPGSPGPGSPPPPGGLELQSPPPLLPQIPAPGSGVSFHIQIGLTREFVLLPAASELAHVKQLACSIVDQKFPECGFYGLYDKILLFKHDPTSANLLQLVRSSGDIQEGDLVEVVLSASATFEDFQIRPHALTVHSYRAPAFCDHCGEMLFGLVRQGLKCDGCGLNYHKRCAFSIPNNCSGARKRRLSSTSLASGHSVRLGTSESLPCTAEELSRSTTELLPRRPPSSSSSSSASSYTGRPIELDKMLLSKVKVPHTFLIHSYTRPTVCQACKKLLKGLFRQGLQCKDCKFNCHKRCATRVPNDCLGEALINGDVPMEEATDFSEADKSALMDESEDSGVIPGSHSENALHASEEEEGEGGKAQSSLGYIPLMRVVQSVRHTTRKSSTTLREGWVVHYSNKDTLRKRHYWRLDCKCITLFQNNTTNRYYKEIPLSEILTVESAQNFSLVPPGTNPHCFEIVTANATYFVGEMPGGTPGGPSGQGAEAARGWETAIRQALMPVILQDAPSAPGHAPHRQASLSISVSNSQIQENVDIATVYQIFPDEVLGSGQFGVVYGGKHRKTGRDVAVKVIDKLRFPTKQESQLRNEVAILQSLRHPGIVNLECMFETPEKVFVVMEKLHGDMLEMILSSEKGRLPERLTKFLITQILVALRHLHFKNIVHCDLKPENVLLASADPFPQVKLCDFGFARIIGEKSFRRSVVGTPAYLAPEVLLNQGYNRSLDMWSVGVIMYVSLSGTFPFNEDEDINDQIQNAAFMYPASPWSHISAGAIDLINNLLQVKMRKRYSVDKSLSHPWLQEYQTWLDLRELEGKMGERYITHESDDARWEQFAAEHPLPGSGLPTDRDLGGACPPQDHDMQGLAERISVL

[5] = tested on: Epidermal growth factor receptor (Homo sapiens), P00533 [UNDEFINED MUTATION]; test: Selectivity interaction (KinomeScan (DiscoverX)) EUB0001049a EGFR; conditions: at 1 µM
[6] = molecular target: Tyrosine-protein kinase SYK (Homo sapiens, UniProt P43405); test: Selectivity interaction (Kinase panel (33PanQinase(R) Activity Assay)) EUB0000877a SYK
[7] = molecular target: SRSF protein kinase 2 (Homo sapiens) (UniProt P78362); test: Selectivity interaction (Kinase panel (Z-LYTE Assay)) EUB0001632a SRPK2; conditions: at 10 µM
SRSF protein kinase 2 (Homo sapiens), sequence (P78362 whole entry, looked up): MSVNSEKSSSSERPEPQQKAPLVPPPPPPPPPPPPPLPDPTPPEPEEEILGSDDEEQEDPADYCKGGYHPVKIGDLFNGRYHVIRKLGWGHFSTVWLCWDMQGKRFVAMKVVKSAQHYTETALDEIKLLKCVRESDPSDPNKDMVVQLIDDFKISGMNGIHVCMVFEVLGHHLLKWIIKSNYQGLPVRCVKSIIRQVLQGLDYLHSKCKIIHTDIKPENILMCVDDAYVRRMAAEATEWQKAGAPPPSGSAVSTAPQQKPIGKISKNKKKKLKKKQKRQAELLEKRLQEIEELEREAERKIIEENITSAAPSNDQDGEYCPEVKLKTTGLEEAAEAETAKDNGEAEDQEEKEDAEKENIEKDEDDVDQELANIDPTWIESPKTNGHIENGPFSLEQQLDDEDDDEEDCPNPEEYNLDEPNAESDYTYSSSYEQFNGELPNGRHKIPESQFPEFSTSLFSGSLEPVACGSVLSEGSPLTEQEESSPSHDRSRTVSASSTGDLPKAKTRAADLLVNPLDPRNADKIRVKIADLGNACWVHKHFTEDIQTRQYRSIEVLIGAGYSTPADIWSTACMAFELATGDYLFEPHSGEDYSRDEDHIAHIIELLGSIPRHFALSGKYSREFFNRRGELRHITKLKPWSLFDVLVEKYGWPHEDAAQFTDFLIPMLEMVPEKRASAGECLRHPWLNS

Epidermal growth factor receptor (Homo sapiens), P00533 [UNDEFINED MUTATION], sequence (P00533 whole entry, looked up, change not shown): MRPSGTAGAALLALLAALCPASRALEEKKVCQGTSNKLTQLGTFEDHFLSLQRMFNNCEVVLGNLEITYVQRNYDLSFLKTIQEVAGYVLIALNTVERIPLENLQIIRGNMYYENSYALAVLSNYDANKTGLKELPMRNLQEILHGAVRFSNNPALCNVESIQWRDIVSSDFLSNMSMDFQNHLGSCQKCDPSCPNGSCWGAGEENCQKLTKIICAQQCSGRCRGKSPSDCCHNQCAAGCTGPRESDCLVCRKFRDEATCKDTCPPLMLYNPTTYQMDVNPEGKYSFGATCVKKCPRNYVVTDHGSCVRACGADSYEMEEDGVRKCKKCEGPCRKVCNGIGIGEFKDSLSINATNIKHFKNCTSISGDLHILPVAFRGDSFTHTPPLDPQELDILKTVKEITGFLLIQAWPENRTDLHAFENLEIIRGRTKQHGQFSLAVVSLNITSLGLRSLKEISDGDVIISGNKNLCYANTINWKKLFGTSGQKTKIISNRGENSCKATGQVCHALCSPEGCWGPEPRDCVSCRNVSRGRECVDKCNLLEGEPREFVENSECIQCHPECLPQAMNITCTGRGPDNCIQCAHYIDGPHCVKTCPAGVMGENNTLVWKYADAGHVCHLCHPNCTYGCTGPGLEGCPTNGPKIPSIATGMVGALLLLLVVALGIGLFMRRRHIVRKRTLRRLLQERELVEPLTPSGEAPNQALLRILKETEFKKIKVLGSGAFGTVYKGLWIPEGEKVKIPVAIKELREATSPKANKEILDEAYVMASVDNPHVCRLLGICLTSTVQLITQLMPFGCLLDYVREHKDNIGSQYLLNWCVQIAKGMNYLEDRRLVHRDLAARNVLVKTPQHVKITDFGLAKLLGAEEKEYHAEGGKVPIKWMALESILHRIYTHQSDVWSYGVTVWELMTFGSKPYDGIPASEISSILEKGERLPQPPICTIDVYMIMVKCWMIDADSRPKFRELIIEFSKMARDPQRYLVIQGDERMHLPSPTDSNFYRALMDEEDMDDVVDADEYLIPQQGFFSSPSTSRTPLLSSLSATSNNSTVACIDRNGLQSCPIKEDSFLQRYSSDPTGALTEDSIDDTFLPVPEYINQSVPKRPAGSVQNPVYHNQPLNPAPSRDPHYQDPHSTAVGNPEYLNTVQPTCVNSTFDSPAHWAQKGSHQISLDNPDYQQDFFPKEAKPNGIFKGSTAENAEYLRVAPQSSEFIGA
Tyrosine-protein kinase JAK1, sequence (P23458 whole entry): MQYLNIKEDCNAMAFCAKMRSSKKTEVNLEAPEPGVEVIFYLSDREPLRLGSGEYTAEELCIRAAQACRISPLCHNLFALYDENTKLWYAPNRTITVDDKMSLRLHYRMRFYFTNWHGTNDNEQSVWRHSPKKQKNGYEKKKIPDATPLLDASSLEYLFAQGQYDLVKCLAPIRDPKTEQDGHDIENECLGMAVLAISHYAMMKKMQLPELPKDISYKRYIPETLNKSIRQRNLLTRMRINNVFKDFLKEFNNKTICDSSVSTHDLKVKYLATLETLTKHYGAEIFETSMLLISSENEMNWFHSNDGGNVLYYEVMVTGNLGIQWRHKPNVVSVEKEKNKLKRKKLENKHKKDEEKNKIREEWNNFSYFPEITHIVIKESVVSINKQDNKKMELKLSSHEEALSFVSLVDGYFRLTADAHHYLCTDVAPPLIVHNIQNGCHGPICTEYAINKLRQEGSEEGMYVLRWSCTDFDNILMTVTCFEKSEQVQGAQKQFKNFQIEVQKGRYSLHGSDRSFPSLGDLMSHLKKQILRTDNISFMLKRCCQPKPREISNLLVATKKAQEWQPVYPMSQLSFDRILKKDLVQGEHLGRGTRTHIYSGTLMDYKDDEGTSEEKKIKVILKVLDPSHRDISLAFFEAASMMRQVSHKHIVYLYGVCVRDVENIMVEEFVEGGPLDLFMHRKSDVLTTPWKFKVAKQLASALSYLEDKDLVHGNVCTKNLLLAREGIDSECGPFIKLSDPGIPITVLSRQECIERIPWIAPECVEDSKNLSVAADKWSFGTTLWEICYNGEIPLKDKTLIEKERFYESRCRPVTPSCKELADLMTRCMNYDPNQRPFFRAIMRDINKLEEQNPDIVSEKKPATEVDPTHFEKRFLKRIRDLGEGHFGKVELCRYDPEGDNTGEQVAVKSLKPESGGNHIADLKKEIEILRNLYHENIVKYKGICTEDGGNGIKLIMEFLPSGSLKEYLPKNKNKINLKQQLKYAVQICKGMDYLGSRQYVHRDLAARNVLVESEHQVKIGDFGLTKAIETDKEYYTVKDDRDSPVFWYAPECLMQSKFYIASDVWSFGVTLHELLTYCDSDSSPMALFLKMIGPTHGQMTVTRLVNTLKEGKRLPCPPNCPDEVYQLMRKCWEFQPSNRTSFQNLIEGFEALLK

Structure (SMILES): CC(C)(O)[C@H](F)CN1Cc2cc(NC(=O)c3cnn4cccnc34)c(N3CCOCC3)cc2C1=O
dTM [1]: 2.3 K

% of inhibition [2]: -35.3%
% of inhibition [3]: -6.4%
Structure (SMILES): CC[C@@H]1[C@H](F)C(=O)N[C@@H]1COc1nccc2cc(C(N)=O)c(OC)cc12 [ZIMLOVISERTIB]

Structure (SMILES): COc1cc(Nc2nc(C)cc(-c3cnn4nc(OC)ccc34)n2)cc(C(F)(F)F)c1
% of control [4]: 100%
% of control [5]: 53%

IC50 [6]: > 10 µM
Structure (SMILES): CCC(=O)N1CC[C@H](Nc2ncnc3c2CN(c2cnc(OC)c(C(F)(F)F)c2)CC3)C1 [LENIOLISIB]

% of control [7]: -0.444%
Structure (SMILES): Cn1cc(-n2cnc3c(NCc4nc5cc(Cl)c(Cl)cc5[nH]4)nc(N4CCOCC4)nc32)cn1
